Experiments:
[1] = biological target: hGYS1 enzyme (recombinant hGYS1/GN1 protein) (Homo sapiens (Human), UniProt P13807); test: GYS1 coupled enzyme assay (PK/LDH); assay type: biochemical; settings: hGYS1/GN1 50 nM, UDP-Glucose 0.8 mM, G6P 1 mM; geometric mean of at least 2 runs
[2] = tested on: hGYS1 enzyme / glycogen synthesis in HeLa cells; test: GYS1 cell based assay (glycogen synthesis, Glucose-glo); design: species or system human; settings: Homo sapiens, HeLa, 24 h, 24 h incubation, 20 mM glucose, geometric mean of at least 2 runs
How it was run: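 HeLa cells starved 24 h in medium containing only 1× Glutamax were plated onto compound in medium with 20 mM glucose (1% DMSO final) for 24 h, 37 °C, 5% CO2. Acid lysates were Tris-quenched, glucoamylase-digested (pH 5.3, 1 h, 37 °C) and read by Glucose-glo luminescence. IC50 came from Hill fits, as geometric mean of ≥2 runs.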

[3] = biological target: hGYS2 enzyme (recombinant hGYS2/GN1 protein) (Homo sapiens (Human), UniProt P54840); test: GYS2 coupled enzyme assay (PK/LDH); assay type: biochemical; settings: geometric mean of at least 2 assay runs on separate days, read-out: Avg_IC50
Sequence of hGYS2 enzyme (recombinant hGYS2/GN1 protein) (P54840 whole entry): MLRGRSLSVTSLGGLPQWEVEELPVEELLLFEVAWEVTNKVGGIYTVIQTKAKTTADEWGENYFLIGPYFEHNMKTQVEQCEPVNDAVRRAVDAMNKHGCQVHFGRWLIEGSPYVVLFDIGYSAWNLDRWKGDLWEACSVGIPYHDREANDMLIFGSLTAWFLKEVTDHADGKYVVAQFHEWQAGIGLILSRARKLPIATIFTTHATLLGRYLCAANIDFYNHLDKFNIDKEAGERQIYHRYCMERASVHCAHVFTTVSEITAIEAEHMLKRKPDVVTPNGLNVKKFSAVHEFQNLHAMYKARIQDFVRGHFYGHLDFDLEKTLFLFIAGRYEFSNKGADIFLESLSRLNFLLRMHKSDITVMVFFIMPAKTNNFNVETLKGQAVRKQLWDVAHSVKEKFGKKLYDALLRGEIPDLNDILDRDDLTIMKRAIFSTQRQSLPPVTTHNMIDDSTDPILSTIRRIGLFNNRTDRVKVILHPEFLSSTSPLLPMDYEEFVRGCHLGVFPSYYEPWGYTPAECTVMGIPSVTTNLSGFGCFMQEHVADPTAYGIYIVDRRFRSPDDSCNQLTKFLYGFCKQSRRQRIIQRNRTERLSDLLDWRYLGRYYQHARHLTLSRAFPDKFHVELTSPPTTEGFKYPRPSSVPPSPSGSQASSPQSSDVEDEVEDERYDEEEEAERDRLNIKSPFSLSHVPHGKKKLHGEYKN
Sequence of hGYS2 enzyme (recombinant hGYS2/GN1 protein) (P46976 whole entry partner): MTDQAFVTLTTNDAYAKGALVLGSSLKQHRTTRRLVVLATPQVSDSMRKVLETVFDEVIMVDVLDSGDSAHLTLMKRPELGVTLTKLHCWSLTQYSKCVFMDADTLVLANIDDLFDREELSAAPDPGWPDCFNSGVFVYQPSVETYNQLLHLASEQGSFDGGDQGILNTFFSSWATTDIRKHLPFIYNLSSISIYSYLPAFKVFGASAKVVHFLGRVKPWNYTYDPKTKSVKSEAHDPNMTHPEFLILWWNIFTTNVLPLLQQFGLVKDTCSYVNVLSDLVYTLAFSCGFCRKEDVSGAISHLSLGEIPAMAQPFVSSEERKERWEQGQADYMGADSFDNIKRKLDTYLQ
How it was run: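 Recombinant hGYS2/GN1 (200 nM) with 2 mM UDP-glucose, 0.2% rabbit liver glycogen, 2 mM glucose-6-phosphate; UDP coupled via PK/LDH (2 mM PEP, 0.6 mM NADH). Buffer 50 mM Tris pH 7.5, 2 mM MgCl2, 100 mM KCl, 2.5% DMSO. A340 slope over 10 min; IC50 from Hill fit of duplicates.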

Sequence of hGYS1 enzyme (recombinant hGYS1/GN1 protein) (P13807 whole entry): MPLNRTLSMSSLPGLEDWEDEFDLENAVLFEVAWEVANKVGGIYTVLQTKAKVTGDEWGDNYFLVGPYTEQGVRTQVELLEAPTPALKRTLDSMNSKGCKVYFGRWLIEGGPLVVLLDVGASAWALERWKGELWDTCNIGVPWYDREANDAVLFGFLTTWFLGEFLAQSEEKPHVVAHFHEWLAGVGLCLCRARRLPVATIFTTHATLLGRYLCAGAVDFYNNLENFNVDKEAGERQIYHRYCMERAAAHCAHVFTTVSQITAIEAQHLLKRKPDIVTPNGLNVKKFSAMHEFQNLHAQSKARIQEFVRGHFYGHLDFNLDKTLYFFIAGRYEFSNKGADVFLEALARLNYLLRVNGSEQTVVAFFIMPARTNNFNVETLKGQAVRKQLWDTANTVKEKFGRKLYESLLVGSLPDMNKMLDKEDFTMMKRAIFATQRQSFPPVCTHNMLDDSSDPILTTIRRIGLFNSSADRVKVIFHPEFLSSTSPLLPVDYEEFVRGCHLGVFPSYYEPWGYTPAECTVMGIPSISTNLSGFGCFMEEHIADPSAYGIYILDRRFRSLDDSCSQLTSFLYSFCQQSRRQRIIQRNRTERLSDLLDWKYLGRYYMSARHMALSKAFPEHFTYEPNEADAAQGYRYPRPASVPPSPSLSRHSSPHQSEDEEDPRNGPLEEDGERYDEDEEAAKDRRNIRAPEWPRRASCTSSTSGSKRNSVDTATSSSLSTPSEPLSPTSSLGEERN
Sequence of hGYS1 enzyme (recombinant hGYS1/GN1 protein) (P46976 whole entry partner): as the sequence (P46976 whole entry partner) above

| Structure (SMILES) | IC50 [1] [nM] | IC50 [2] [nM] | IC50 [3] [nM] |
| --- | --- | --- | --- |
| Cc1ccnn1CC(=O)N1C[C@H](F)C[C@H]1C(=O)N[C@@H](c1ccccc1)c1ccc(C(C)C)c(F)n1 [Compound 782, (2S,4R)-4-fluoro-N-[(S)-[6-fluoro-5-(propan-2-yl)pyridin-2-yl](phenyl)methyl]-1-[2-(5-methyl-1H-pyrazol-1-yl)acetyl] pyrrolidine-2-carboxamide] | 11 | 220 | > 100000 |
| CC(C)c1ccc([C@@H](NC(=O)[C@@H]2C[C@@H](F)CN2C(=O)Cn2nccc2C(F)F)c2ccccc2)nc1F [Compound 783, (2S,4R)-1-{2-[5-(difluoromethyl)-1H-pyrazol-1-yl]acetyl}-4-fluoro-N-[(S)-[6-fluoro-5-(propan-2-yl)pyridin-2-yl](phenyl)methyl] pyrrolidine-2-carboxamide] | 5 | 80 | > 100000 |
| Cc1cc(CC(=O)N2C[C@H](F)C[C@H]2C(=O)N[C@@H](c2ccccc2)c2ccc(C(C)C)c(F)n2)c[nH]c1=O [Compound 784, (2S,4R)-4-fluoro-N-[(S)-[6-fluoro-5-(propan-2-yl)pyridin-2-yl](phenyl)methyl]-1-[2-(5-methyl-6-oxo-1,6-dihydropyridin-3-yl)acetyl]pyrrolidine-2-carboxamide] | 5 | 310 | > 100000 |
| CC(C)c1ccc([C@@H](NC(=O)[C@@H]2C[C@@H](F)CN2C(=O)Cn2ccc(=O)[nH]c2=O)c2ccccc2)nc1F [Compound 785, (2S,4R)-1-[2-(2,4-dioxo-1,2,3,4-tetrahydropyrimidin-1-yl)acetyl]-4-fluoro-N-[(S)-[6-fluoro-5-(propan-2-yl)pyridin-2-yl](phenyl)methyl] pyrrolidine-2-carboxamide] | 6 | 130 | > 100000 |
| CCn1c(=O)ccn(CC(=O)N2C[C@H](F)C[C@H]2C(=O)N[C@@H](c2ccccc2)c2ccc(C(C)C)c(F)n2)c1=O [Compound 786, (2S,4R)-1-[2-(3-ethyl-2,4-dioxo-1,2,3,4-tetrahydropyrimidin-1-yl)acetyl]-4-fluoro-N-[(S)-[6-fluoro-5-(propan-2-yl)pyridin-2-yl](phenyl)methyl] pyrrolidine-2-carboxamide] | 3 | 50 | > 100000 |
| CC(C)c1ccc([C@@H](NC(=O)[C@@H]2C[C@@H](F)CN2C(=O)Cn2cc(C(F)(F)F)cn2)c2ccccc2)nc1F [Compound 788] | 20 | 340 | > 100000 |
| CC(C)c1ccc([C@@H](NC(=O)[C@@H]2C[C@@H](F)CN2C(=O)Cn2ccc(C(F)F)n2)c2ccccc2)nc1F [Compound 789, (2S,4R)-1-{2-[3-(difluoromethyl)-1H-pyrazol-1-yl]acetyl}-4-fluoro-N-[(S)-[6-fluoro-5-(propan-2-yl)pyridin-2-yl](phenyl)methyl] pyrrolidine-2-carboxamide] | 10 | 280 | > 100000 |
| CC(C)c1ccc([C@@H](NC(=O)[C@@H]2C[C@@H](F)CN2C(=O)Cn2ccc(C(F)(F)F)n2)c2ccccc2)nc1F [Compound 790, (2S,4R)-4-fluoro-N-[(S)-[6-fluoro-5-(propan-2-yl)pyridin-2-yl](phenyl)methyl]-1-{2-[3-(trifluoromethyl)-1H-pyrazol-1-yl]acetyl} pyrrolidine-2-carboxamide] | 8 | 250 | > 100000 |
| CC(C)c1ccc([C@@H](NC(=O)[C@@H]2C[C@@H](F)CN2C(=O)Cc2ccc(=O)[nH]c2)c2ccccc2)nc1F [Compound 791, (2S,4R)-4-fluoro-N-[(S)-[6-fluoro-5-(propan-2-yl)pyridin-2-yl](phenyl)methyl]-1-[2-(6-oxo-1,6-dihydropyridin-3-yl)acetyl]pyrrolidine-2-carboxamide] | 7 | 390 | > 100000 |
| CCn1cc(CC(=O)N2C[C@H](F)C[C@H]2C(=O)N[C@@H](c2ccccc2)c2ccc(C(C)C)c(F)n2)ccc1=O [Compound 792, (2S,4R)-1-[2-(1-ethyl-6-oxo-1,6-dihydropyridin-3-yl)acetyl]-4-fluoro-N-[(S)-[6-fluoro-5-(propan-2-yl)pyridin-2-yl](phenyl)methyl] pyrrolidine-2-carboxamide] | 6 | 210 | > 100000 |
| CC(C)c1ccc([C@@H](NC(=O)[C@@H]2C[C@@H](F)CN2C(=O)Cc2ccc[nH]c2=O)c2ccccc2)nc1F [Compound 793, (2S,4R)-4-fluoro-N-[(S)-[6-fluoro-5-(propan-2-yl)pyridin-2-yl](phenyl)methyl]-1-[2-(2-oxo-1,2-dihydropyridin-3-yl)acetyl]pyrrolidine-2-carboxamide] | 12 | 580 | > 100000 |
| CCn1c(=O)c(C)cn(CC(=O)N2C[C@H](F)C[C@H]2C(=O)N[C@@H](c2ccccc2)c2ccc(C(C)C)c(F)n2)c1=O [Compound 794, (2S,4R)-1-[2-(3-ethyl-5-methyl-2,4-dioxo-1,2,3,4-tetrahydropyrimidin-1-yl)acetyl]-4-fluoro-N-[(S)-[6-fluoro-5-(propan-2-yl)pyridin-2-yl](phenyl)methyl] pyrrolidine-2-carboxamide] | 2 | 40 | > 100000 |
| CCn1cccc(CC(=O)N2C[C@H](F)C[C@H]2C(=O)N[C@@H](c2ccccc2)c2ccc(C(C)C)c(F)n2)c1=O [Compound 795, (2S,4R)-1-[2-(1-ethyl-2-oxo-1,2-dihydropyridin-3-yl)acetyl]-4-fluoro-N-[(S)-[6-fluoro-5-(propan-2-yl)pyridin-2-yl](phenyl)methyl] pyrrolidine-2-carboxamide] | 11 | 240 | > 100000 |

— patent US11814367B2, “Inhibitors of glycogen synthase 1 (GYS1) and methods of use thereof” (Maze Therapeutics, Inc., priority 2021, dated 2023)
